From patent US20210270815A1, “SPERM FERTILITY CAPACITY TEST AND SPERM DECAPACITATING SUPPLEMENT” (priority 2018, published 2021) come the findings set out here.

Residues, ends and D or L forms follow the SMILES beside them. *: point of attachment. Cbz = O=C(OCc1ccccc1)*

Assay [1] relates to boar spermatozoa. Briefly: Zinc signature (FZ3, image-based flow cytometry) of boar spermatozoa after 4 hours of in vitro capacitation (IVC). The assay is classed as cell-based, Sus scrofa. The source says: Fresh boar spermatozoa were capacitated using a protocol that rendered them capable of recognizing and binding to ZP, as well as undergoing acrosomal exocytosis and penetrating the oocyte ZP^11. IVC-induced protein tyrosine phosphorylation changes are shown in FIG. 3; acrosomal status and plasma membrane changes are shown in FIG. 4A and FIG. 4B. Briefly, spermatozoa were washed of seminal plasma once with noncapacitating media (NCM), a modified TL-HEPES medium, free of calcium dichloride (CaCl2) and addition of 11 mM D-glucose, with pH adjusted to 7.2. Spermatozoa were then resuspended in 0.5 mL in vitro capacitation (IVC) media, TL-HEPES-PVA supplemented with 5 mM sodium pyruvate, 11 mM D-glucose, 2 mM CaCl2, 2 mM sodium bicarbonate, and 2% (m/v) bovine serum albumin, and incubated in a 37° C. water bath for 4 hours, with sperm rotation performed every 60 minutes. Control incubations under non-IVC conditions used NCM. Proteasome inhibitors (100 μM MG-132 and 10 μM Epox/CLBL/MG-132) were mixed with IVC media prior to sperm pellet resuspension. 100 μM M MG-132 and ‘100 μM’ vehicle contained 0.5% (v/v) DMSO. 10 μM Epox/CLBL/MG-132 and ‘10 μM’ vehicle contained 0.3% (v/v) DMSO. PVA (polyvinyl alcohol) helped to reduce sperm aggregation and spermatozoa were pipetted repeatedly to dissociate sperm aggregates in a satisfactory manner prior to IBFC data acquisition. To confirm normal capacitation in the experimental IVC media, compared to 15 mM sodium bicarbonate IVC media, normal hyperactivation status was recorded and tyrosine phosphorylation status was normal (FIG. 3). Unlike murine or rodent sperm tyrosine phosphorylation, porcine tyrosine phosphorylation is much more modest, with less prominent changes during the course of capacitation. Therefore new bands after capacitation appear only at the molar weights of 32 kDa (acrosin binding protein), and 21 kDa protein (phospholipid hydroperoxide glutathione peroxidase). […] Final acrosome and plasma membrane modification status is similar at end of IVC regardless of the two IVC treatment conditions; however, the rate of change and cell death is faster in 15 mM sodium bicarbonate containing medium than experimental IVC medium (FIGS. 4A and 4B).
(§1) Upon 4 hours of IVC, sample size of 100 μL (4 million spermatozoa) were incubated 30 minutes with 1:200 H33342, 1:200 PI, and 1:100 FZ3 for epifluorescence microscopy. Lower probe concentrations were necessary for IBFC due to camera detection differences, thus 1:1000, 1:1000, and 1:500 were used, respectively, with inclusion of 1:1000 PNA-AF647. For Fluo-4 calcium probe, we followed manufacturer protocol using identical cell concentrations.
IBFC data acquisition was performed following previous methodology^56. Specifically, using a FlowSight flow cytometer (FS) fitted with a 20× microscope objective (numerical aperture of 0.9) with an imaging rate up to 2000 events per sec. The sheath fluid was PBS (without Ca^2+ or Mg^2+). The flow-core diameter and speed was 10 μm and 66 mm per sec, respectively. Raw image data were acquired using INSPIRE® software. To produce the highest resolution, the camera setting was at 1.0 μm per pixel of the charged-coupled device. In INSPIRE® FS data acquisition software, two brightfield channels were collected (channels 1 & 9), one FZ3 image (channel 2), one PI image (channel 5), one side scatter (SSC; channel 6), one H33342 (channel 7), and one PNA-AF647 image (channel 11), with a minimum of 10,000 spermatozoa collected. The following lasers and power settings were used: 405 nm (to excite H33342): 10 mW; 488 nm (to excite FZ3): 60 mW; 561 nm (to excite PI): 40 mW, 642 nm (to excite PNA-AF647): 25 mW; and 785 nM SSC laser: 10 mW.
Data were analyzed using IDEAS® analysis software from AMNIS EMD Millipore. Gating approach used standard focus and single cell gating calculations created by IDEAS software (FIG. 2A, left and middle panels). […]

Assay [2] concerns boar spermatozoa. Briefly: TPEN Zn chelation of spermatozoa, FZ3 zinc probe and Fluo-4 calcium probe fluorescence. The assay is classed as cell-based, Sus scrofa. As to conditions: 10 μM, 40 million sperm per mL, 1 hour. As to the method: Zn^2+ chelation was performed using TPEN (membrane permeable). 10 μM TPEN was incubated with 40 million sperm per mL for 1 hour. Stock TPEN: 1 mM in 1:100 EtOH:H2O.
as §1
IBFC data acquisition was performed following previous methodology^56. […]
Data were analyzed using IDEAS® analysis software from AMNIS EMD Millipore. […] Events in focus were further gated to analyze only a single spermatozoa by plotting H33342 fluorescence area by aspect ratio (FIG. 2A, middle panel). […] Such mask was created by taking a morphology mask of the brightfield (FIG. 2B, first column), subtracting a 4-pixel dilation of H33342 (FIG. 2B, second column), resulting in a mask to analyze fluorescence in the tail region only (FIG. 2B, third and fourth columns). […] This combined gating and masking strategy shown in FIG. 2C provided robust clean data, ready for signature analysis by plotting FZ3 intensity of this masked region, which is impossible with traditional flow cytometry. […]

Where [3] appears, read: 100 μM in IVC media, 4 hours 37° C., pre-sperm rich fraction, mean±s.e.m., 3 biological replicates, 10,000 cells.

`CC(C)C[C@@H](C=O)NC(=O)[C@H](CC(C)C)NC(=O)[C@H](CC(C)C)NC(=O)OCc1ccccc1` [MG132] (Cbz-Leu-Leu-Leu-aldehyde): in the assay with boar spermatozoa [1] (setting [3]), the “Signature 1 (portion of spermatozoa with zinc signature 1)” value is 30.8% ± 13.1%^B, the “Signature 2 (portion of spermatozoa with zinc signature 2)” value is on record as 32.9% ± 19.5%, the “Signature 3 (portion of spermatozoa with zinc signature 3)” value is on record as 31.0% ± 4.9%^B and the “Signature 4 (portion of spermatozoa with zinc signature 4)” value is 5.4% ± 4.9%^AB. Further, in the assay with boar spermatozoa [1] (added to IVC conditions, pre-sperm rich fraction, P=0.0271 (signatures 1 & 2 combined P=0.0008)), the “Retention of zinc signature 1 during IVC as compared to IVC+vehicle” value is listed as “significantly higher portion of spermatozoa retained signature 1”.
In the case of `c1ccc(CN(CCN(Cc2ccccn2)Cc2ccccn2)Cc2ccccn2)nc1` [TPEN, N,N,N′,N′-Tetrakis(2-pyridinylmethyl)-1,2-ethanediamine], in the assay on boar spermatozoa [2], the “FZ3 fluorescence / zinc signature after Zn chelation, compared to vehicle” value was “removed a majority of FZ3 fluorescence to signature 3 and 4 states”; the “Fluo-4 calcium probe intensity compared to vehicle” value is recorded as “did not reduce Fluo-4 calcium probe intensity”.
`[Cl-].[Cl-].[Zn+2]` [ZnCl2, zinc chloride]: in the assay on boar spermatozoa [1] (1 mM added to IVC medium), the “Zinc signature after IVC with exogenous zinc” value is listed as “retained signature 1”.
